In data set [1] the test system is THP1 differentiated macrophages. Briefly: Macrophage activation: cytokine production by THP1 differentiated macrophages stimulated with LPS (E. coli O55:B5). It is filed as cell-based, human. Particulars: compound 24 h, then 100 ng/mL LPS E. coli 6 h. On the procedure:
(§1) In order to test the efficacy of the compounds on macrophage activation and pro-inflammatory cytokine production, 2.5×10^4 THP-1 cells were cultured in a 384-well plate and treated with 100 ng/mL PMA (#P8139, Sigma) for 24 h to induce differentiation into macrophages.
Then, medium was removed and FBS-deprived medium containing the compound of formula (I) was added for 24 h. Finally, THP1 macrophages were stimulated with 100 ng/mL LPS (E. coli O55:B5, #L4005, Sigma) for 6 h.

The subject of data set [2] is LPS-induced endotoxemia. Briefly: Preclinical model of endotoxemia: hepatic markers (total bilirubin, albumin) and TNFα in rat serum. Format: in vivo, male Sprague Dawley rats. To be noted: rats, 3 mg/kg/day oral gavage 3 days before LPS, blood 3 h after LPS.
The subject of data set [3] is CLP induced polymicrobial sepsis. Briefly: Cecal ligation and puncture (CLP) model of polymicrobial sepsis: survival. It is filed as in vivo, C57BL6J male mice. Particulars: mice, 0.3 mg/kg p.o. On the procedure: This study aims to investigate the efficacy of Cpd.1 in cecal ligation and puncture (CLP) model in C57BL6J (BL6) male mice. The efficacy of the test compound was evaluated based on the survival rate of the animals within the study period.
C57BL6J male mice (supplier Janvier—France) at 9 weeks of age and weighing 23-25 g on arrival were anesthetized with 250 μL of xylazine/ketamine solution (20 mg/100 g body weight) by intraperitoneal route. A 1-1.5 cm abdominal midline incision was made, and the caecum was located and tightly ligated at half the distance between distal pole and the base of the cecum with 4-0 silk suture (mild grade). The caecum was punctured through-and-through once with a 21-gauge needle from mesenteric toward antimesenteric direction after medium ligation. A small amount of stool was extruded to ensure that the wounds were patent. Then the cecum was replaced in its original position within the abdomen, which was closed with sutures and wound clips. Mice were followed for body weight evolution and mortality rate until Day 6.
Cpd.1 or vehicle (Labrafil M 1944 CS, #3063, Gattefossé) was administrated at 0.3 mg/kg, p.o. for three days before CLP surgery. The day of CLP (day 0), Cpd.1 was administrated 1 h before surgery and pursued daily until day 6. Experiment was terminated at day 7.
Two groups of C57BL6J mice at the age of 9 weeks were treated as described above. • 1. […]

Data set [4] has as its system HepG2 cells. The experiment in a line: Staurosporin-induced apoptosis in HepG2 cells (caspase 3/7 activity, Caspase Glo). To be noted: 16 h pre-treatment, then 10 μM staurosporin 4 h; for inhibition at 0.3 µM: Homo sapiens, HepG2, 0.3 μM, read-out: % Inhibition of caspase activity over mean Veh. It is filed as cell-based, human. On the procedure: In order to evaluate the effect of the compounds on human hepatocytes that undergo a cellular stress induced by staurosporin, the human hepatoblastoma-derived HepG2 cell line (ECACC, #85011430, Sigma-Aldrich) was cultured in high-glucose DMEM medium (#41965, Gibco, France) supplemented with 10% of fetal bovine serum (FBS, #10270, Gibco), 1% penicillin/streptomycin (#15140, Gibco), 1% sodium pyruvate (#11360, Gibco) and 1% MEM non-essential amino acids (#11140, Gibco) in a 5% CO2 incubator at 37° C.
To evaluate caspase 3/7 activity, which is a surrogate marker of apoptosis, 1.5×10^4 cells were plated in a 384-well plate (#781080, Greiner, France). After cell adherence (8 hours), cells were serum starved for 16 h in the presence of 0.3 μM of compounds or vehicle. Cpd.1 was also used at 3 and 10 μM. Thereafter, cells were treated with 10 μM staurosporin (#569397, Sigma-Aldrich, Germany) supplemented with compound for additional 4 hours before cell lysis and caspase activity measurement.
Caspase 3/7 activity was measured using Caspase Glow™ 3/7 assay (#G8093, Promega, USA). Luminescence was measured using a Spark microplate reader (#30086376, Tecan, USA). The amount of luminescence (RLU) directly correlates with caspase 3/7 activity.

The test system of data set [5] is THP1 macrophages. Briefly: Macrophage activation: MCP1 and TNFα secretion induced by LPS from Klebsiella in THP1 macrophages (HTRF). Format: cell-based, human. To be noted: 24 h, then LPS Klebsiella 6 h; for inhibition at 10 µM / inhibition at 1 µM: Homo sapiens; for inhibition at 10 µM: THP-1, 10 μM; for inhibition at 1 µM: THP-1, 1 μM. On the procedure:
as §1
Then, medium was removed and FBS-deprived medium containing 1 or 10 μM compound was added for 24 h. Finally, THP1 macrophages were stimulated for 6 h with 100 ng/mL LPS (Klebsiella pneumoniae, #L4268, Sigma-Aldrich).
Monocyte chemoattractant protein 1 (MCP1) and […] (TNFα) were measured in cell supernatants by Homogeneous Time Resolved Fluorescence (HTRF, #62[…] for TNFα, and 62HCCL2PEG for MCP1, Cisbio). Fluorescence was measured with Infinite 500 (#30019337, Tecan) to determine the concentration of cytokines.
Background: TR-FRET usually uses a lanthanide donor and a delayed reading to cut background.

The mark [6] stands for this setting: read-out: % inhibition of MCP1 secretion over mean Veh.
The mark [7] stands for this setting: read-out: % inhibition of TNFα secretion over mean Veh.

Read-outs that look alike come from different tables or passages of the source.

Consider `COC(CCc1cc(C)c(OC(C)(C)C(=O)O)c(C)c1)c1ccc(OC(F)(F)F)cc1` (stereo not drawn) [Cpd. 1, 2-[4-(3-methoxy-3-(4-(trifluoromethoxy)phenyl)propyl)-2,6-dimethylphenoxy]-2-methylpropanoic acid], for which the “reduction of TNFα secretion” value in data set [1] is on record as “potent at reducing TNFα”. Besides, the “reduction of MCP1 secretion” value in data set [1] (all doses tested) is reported as “overpassing the untreated condition for MCP1 secretion at all doses tested”. Further, the “serum total bilirubin level compared to the vehicle condition” value in data set [2] is reported as “completely restored the level of total bilirubin”. Also, the “side effect recorded after each administration” value in data set [3] is reported as “No side effect”. Moreover, the “reduction of staurosporin-induced caspase activity, dose dependence” value in data set [4] (0.3, 3 and 10 μM) is given as “reduced caspase activity induced by staurosporin in a dose-dependent manner”.
The inhibition is the relative decrease from the control value, in per cent. Take `Cc1cc(CCC(=O)c2ccc(OC(F)(F)F)cc2)cc(C)c1OC(C)(C)C(=O)O` [Cpd. 2, 2-[2,6-dimethyl-4-[3-[4-(trifluoromethyloxy)phenyl]-3-oxo-propyl]phenoxy]-2-methylpropanoic acid]: the inhibition at 10 µM in data set [5] (setting [6]) was 106%. Moreover, the inhibition at 0.3 µM in data set [4] is 70%.
In the case of `Cc1cc(CCC(=O)c2ccc(C(F)(F)F)cc2)cc(C)c1OC(C)(C)C(=O)O` [Cpd. 3, 2-[2,6-dimethyl-4-[3-[4-(trifluoromethyl)phenyl]-3-oxo-propyl]phenoxy]-2-methylpropanoic acid], the inhibition at 10 µM in data set [5] (setting [6]) worked out at 107%; in data set [5] (setting [7]), 20%.
In the case of `CSc1ccc(C(CCc2cc(C)c(OC(C)(C)C(=O)O)c(C)c2)OC(C)C)cc1` (stereo not drawn) [Cpd. 5, 2-[2,6-dimethyl-4-[3-[4-(methylthio)phenyl]-3-isopropyloxypropyl]phenoxy]-2-methylpropanoic acid], the inhibition at 10 µM in data set [5] (setting [6]) stood at 110%.
With `Cc1cc(CCC(O)c2ccc(OC(F)(F)F)cc2)cc(C)c1OC(C)(C)C(=O)O` (stereo not drawn) [Cpd. 6, 2-(4-(3-hydroxy-3-(4-(trifluoromethoxy)phenyl)propyl)-2,6-dimethylphenoxy)-2-methylpropanoic acid], the inhibition at 10 µM in data set [5] (setting [6]) came out at 103%. Also, the inhibition at 0.3 µM in data set [4] was determined as 43%.
For the compound `CON=C(CCc1cc(C)c(OC(C)(C)C(=O)O)c(C)c1)c1ccc(OC(F)(F)F)cc1` [Cpd. 7, 2-(4-(3-(methoxyimino)-3-(4-(trifluoromethoxy)phenyl)propyl)-2,6-dimethylphenoxy)-2-methylpropanoic acid], the inhibition at 10 µM amounted to 107% in data set [5] (setting [6]) and 42% in data set [5] (setting [7]). Further, the inhibition at 0.3 µM in data set [4] turned out to be 66%.
Consider `CCOC(CCc1ccc(OC(C)(C)C(=O)O)c(Cl)c1Cl)c1sc(-c2ccc(C(F)(F)F)cc2)nc1C` (stereo not drawn) [Cpd. 9, 2-(2,3-dichloro-4-(3-ethoxy-3-(4-methyl-2-(4-(trifluoromethyl)-phenyl)thiazol-5-yl)propyl)phenoxy)-2-methylpropanoic acid], for which the values for the inhibition at 10 µM in data set [5] (setting [6]) and in data set [5] (setting [7]) were 127% and 77%, respectively.
Regarding `COC(CCc1cc(C)c(OC(C)(C)C(=O)O)c(C)c1)c1ccc(SC)cc1` (stereo not drawn) [Cpd. 13, 2-[2,6-dimethyl-4-[3-[4-(methylthio)phenyl]-3-methoxypropyl]phenoxy]-2-methylpropanoic acid], the figures for the inhibition at 1 µM in data set [5] (setting [6]) and in data set [5] (setting [7]) were 99% and 0%, respectively. In addition, the results for the inhibition at 10 µM in data set [5] (setting [6]) and in data set [5] (setting [7]) were 111% and 18%, respectively. The “% Inhibition of caspase activity over mean Veh.” value in data set [4] (0.3 μM) amounted to 79%.
Regarding `COC(CCc1cc(C)c(OC(C)(C)C(=O)O)c(C)c1)c1ccc(Br)cc1` (stereo not drawn) [Cpd. 14, 2-[2,6-dimethyl-4-[3-[4-bromophenyl]-3-methoxypropyl]phenoxy]-2-methylpropanoic acid], the inhibition at 10 µM in data set [5] (setting [6]) was 107%; in data set [5] (setting [7]), 28%. In addition, in data set [4], the inhibition at 0.3 µM came out at 77%.
Consider `CC(C)(Oc1ccc(CCNC(=O)c2ccc(Cl)cc2)cc1)C(=O)O` [Cpd. 17, bezafibrate, reference compound], for which, in data set [5] (setting [6]), the inhibition at 10 µM was found to be 54%.
As to `CC[C@@H](Oc1cccc(CN(CCCOc2ccc(OC)cc2)c2nc3ccccc3o2)c1)C(=O)O` [Cpd. 18, pemafibrate, reference compound], the inhibition at 10 µM in data set [5] (setting [6]) is 123%.
On to `CCc1ccc(CCOc2ccc(CC3SC(=O)NC3=O)cc2)nc1` (stereo not drawn) [Cpd. 21, pioglitazone, reference compound], for which the inhibition at 10 µM in data set [5] (setting [6]) was found to be 121%; in data set [5] (setting [7]), 19%. The inhibition at 0.3 µM in data set [4] came to 60%.
As for `CN(CCOc1ccc(CC2SC(=O)NC2=O)cc1)c1ccccn1` (stereo not drawn) [Cpd. 22, rosiglitazone, reference compound], in data set [5] (1 μM), the “% inhibition of MCP1 secretion over mean Veh.” value amounted to 79% and the “% inhibition of TNFα secretion over mean Veh.” value was 36%. In addition, in data set [5] (10 μM), the “% inhibition of MCP1 secretion over mean Veh.” value was determined as 117% and the “% inhibition of TNFα secretion over mean Veh.” value was determined as 11%.
Turning to `O=C(O)CCCc1cc2cc(Cl)ccc2n1S(=O)(=O)c1ccc2ncsc2c1` [Cpd. 23, lanifibranor, reference compound], the inhibition at 10 µM in data set [5] (setting [6]) is 126%; in data set [5] (setting [7]) it was 32%.

Values taken from patent publication US20240216313A1, “ELAFIBRANOR DERIVATIVES AGONISTS OF PPAR FOR USE IN THE TREATMENT OF SEPSIS” (Genfit, priority 2021, published 2024).
